Laboratory results: US20040254175A1, “Derivatives of phenoxy-n-'4-(isothiazolindin-1,1-dioxid-2yl)phenyl!-valerian-acid amide and other compounds as inhibitors of the coagulation factor xa in the treatment of thromboembolic diseases and tumors” (priority 2001, published 2004)
Counter-ions that a name gives are not always drawn.

Assays:
TF/FVIIa = TF/FVIIa (Homo sapiens, UniProt P08709); experiment: Inhibition of TF/factor VIIa (TF/FVIIa-IC50)
FXa = FXa (Homo sapiens, UniProt P00742); experiment: Inhibition of factor Xa (FXa-IC50)
Sequence of FXa (P00742 235-488 limits assumed): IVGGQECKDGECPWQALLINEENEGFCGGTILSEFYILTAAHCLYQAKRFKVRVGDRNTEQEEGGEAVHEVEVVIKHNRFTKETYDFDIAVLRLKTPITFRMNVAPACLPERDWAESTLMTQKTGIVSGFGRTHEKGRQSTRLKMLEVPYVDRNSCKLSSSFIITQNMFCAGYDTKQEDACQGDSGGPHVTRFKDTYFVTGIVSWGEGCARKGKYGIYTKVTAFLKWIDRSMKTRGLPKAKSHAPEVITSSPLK
Sequence of FXa (P00742 41-179 partner limits assumed): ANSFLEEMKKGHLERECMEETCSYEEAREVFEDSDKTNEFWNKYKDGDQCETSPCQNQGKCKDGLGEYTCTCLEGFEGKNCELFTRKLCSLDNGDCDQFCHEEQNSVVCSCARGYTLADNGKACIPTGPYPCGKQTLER

Sequence of TF/FVIIa (P08709 213-466 limits assumed): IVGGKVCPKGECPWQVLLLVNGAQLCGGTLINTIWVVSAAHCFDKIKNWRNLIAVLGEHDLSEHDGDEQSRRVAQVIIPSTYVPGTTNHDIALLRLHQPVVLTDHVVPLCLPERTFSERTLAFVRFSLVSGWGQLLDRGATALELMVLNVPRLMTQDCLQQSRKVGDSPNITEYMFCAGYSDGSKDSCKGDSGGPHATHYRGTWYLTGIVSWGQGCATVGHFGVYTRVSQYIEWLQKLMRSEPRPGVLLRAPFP
Sequence of TF/FVIIa (P08709 61-212 partner limits assumed): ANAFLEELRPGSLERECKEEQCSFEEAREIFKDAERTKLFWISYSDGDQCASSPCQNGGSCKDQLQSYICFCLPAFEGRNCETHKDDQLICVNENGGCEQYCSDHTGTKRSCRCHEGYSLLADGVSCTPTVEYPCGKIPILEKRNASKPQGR
Sequence of TF/FVIIa (P13726 33-295 partner): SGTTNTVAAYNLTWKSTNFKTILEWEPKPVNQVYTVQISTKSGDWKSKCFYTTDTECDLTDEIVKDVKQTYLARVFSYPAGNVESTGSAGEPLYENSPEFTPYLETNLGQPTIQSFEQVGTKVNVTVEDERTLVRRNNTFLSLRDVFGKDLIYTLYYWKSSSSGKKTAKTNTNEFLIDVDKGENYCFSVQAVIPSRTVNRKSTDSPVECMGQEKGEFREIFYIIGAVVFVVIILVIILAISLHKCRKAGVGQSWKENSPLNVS

| IC50 (TF/FVIIa) | IC50 (FXa) | Structure (SMILES) |
| --- | --- | --- |
| 450 nM | 350 nM | CCCC(Oc1cccc(C(=N)N)c1)C(=O)Nc1ccc(N2CCCS2(=O)=O)cc1 (stereo not shown) [AA, 2-(3-amidinophenoxy)-N-[4-(1,1-dioxoisothiazolidin-2-yl)phenyl]valeramide, acetate] |
| 870 nM | 490 nM | Cc1cc(NC(=O)C(Nc2cccc(CN)c2)c2ccccc2)ccc1N1CCCS1(=O)=O (stereo not shown) [BB, 2-(3-aminomethylphenylamino)-N-[4-(1,1-dioxoisothiazolidin-2-yl)-3-methylphenyl]-2-phenylacetamide, hydrochloride] |
